Reference: US20170022171A1, “2,5-DISUBSTITUTED CYCLOPENTANECARBOXYLIC ACIDS AND THEIR USE” (Bayer Pharma Aktiengesellschaft, priority 2014, published 2017)
pIC50: −log10 of the molar value.

What follows are molecules tested against T1, human macrophage elastase (HME/hMMP-12) (Homo sapiens, UniProt P39900) (assay: In vitro HME inhibition test (standard or high-sensitivity)). Conditions: in some cases mean values.
T1 construct: 0.5 nM HME; purchased R&D Systems 917-MP
Type: biochemical
Method: The potency of the compounds according to the invention with respect to HME (MMP-12) is determined in an in vitro inhibition test. The HME-mediated amidolytic cleavage of a suitable peptide substrate leads to an increase in fluorescent light therein. The signal intensity of the fluorescent light is directly proportional to the enzyme activity. The active concentration of a test compound at which half the enzyme is inhibited (50% signal intensity of the fluorescent light) is reported as the IC50 value.
In a 384 hole microtiter plate, in a total test volume of 41 the test buffer (0.1 M HEPES pH 7.4, 0.15 M NaCl, 0.03 M CaCl2, 0.004 mM ZnCl2, 0.02 M EDTA, 0.005% Brij®), the enzyme (0.5 nM HME; from R&D Systems, 917-MP, autocatalytic activation according to the manufacturer's instructions) and the intramolecularly quenched substrate [5 μM Mca-Pro-Leu-Gly-Leu-Glu-Glu-Ala-Dap(Dnp)-NH2; Bachem, M-2670] are incubated in the absence and presence of the test substance (as a solution in DMSO) at 37° C. for two hours. The fluorescence intensity of the test mixtures is measured (excitation […], emission 393 nm). The IC50 values are ascertained by plotting the fluorescent light intensity against the active ingredient concentration.
In this case, an enzyme concentration ten times lower is used (final concentration, for example, 0.05 nM) in order to achieve an elevated test sensitivity. The incubation period chosen for the test is correspondingly longer (for example 16 hours).

T1 sequence (P39900 106-470): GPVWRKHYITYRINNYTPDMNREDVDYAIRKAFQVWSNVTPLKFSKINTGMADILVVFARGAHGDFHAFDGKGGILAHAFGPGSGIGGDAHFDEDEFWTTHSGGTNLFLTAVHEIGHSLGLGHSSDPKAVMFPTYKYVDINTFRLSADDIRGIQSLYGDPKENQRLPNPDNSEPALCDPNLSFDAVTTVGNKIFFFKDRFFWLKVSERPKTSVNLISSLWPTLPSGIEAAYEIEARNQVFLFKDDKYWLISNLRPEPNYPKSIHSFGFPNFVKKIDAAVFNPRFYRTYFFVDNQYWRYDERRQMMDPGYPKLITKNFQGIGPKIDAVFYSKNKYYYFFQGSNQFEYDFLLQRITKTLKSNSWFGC

Structure (SMILES) | pIC50
Cc1ccc2nnn(C[C@@H]3CC[C@H](C(=O)c4ccc(OCC5CCCCC5)cc4)[C@H]3C(=O)O)c(=O)c2c1 (racemic) [Example 116, (+/−)-(1RS,2RS,5SR)-2-[4-(Cyclohexylmethoxy)benzoyl]-5-[(6-methyl-4-oxo-1,2,3-benzotriazin-3(4H)-yl)methyl]cyclopentanecarboxylic acid] | 10.03
CCCCCCOc1ccc(C(=O)[C@H]2CC[C@@H](Cn3nnc4ccc(C)cc4c3=O)[C@@H]2C(=O)O)cc1 (racemic) [Example 120, (+/−)-(1RS,2RS,5SR)-2-[4-(Hexyloxy)benzoyl]-5-[(6-methyl-4-oxo-1,2,3-benzotriazin-3(4H)-yl)methyl]cyclopentanecarboxylic acid] | 10.00
CCCCCOc1ccc(C(=O)[C@@H]2CC[C@H](Cn3nnc4ccccc4c3=O)[C@H]2C(=O)O)cc1 (single isomer, unassigned) [Example 8, (+)-(1RS,2SR,5RS)-2-[(4-Oxo-1,2,3-benzotriazin-3(4H)-yl)methyl]-5-[4-(pentyloxy)benzoyl]cyclopentanecarboxylic acid] | 9.68
CCCCCOc1ccc(C(=O)[C@@H]2CC[C@H](Cn3nnc4ccccc4c3=O)[C@H]2C(=O)O)cc1 (single isomer, unassigned) [Example 9, (−)-(1RS,2SR,5RS)-2-[(4-Oxo-1,2,3-benzotriazin-3(4H)-yl)methyl]-5-[4-(pentyloxy)benzoyl]cyclopentanecarboxylic acid] | 6.84
O=C(O)[C@@H]1[C@@H](Cn2nnc3ccc(C(F)(F)F)cc3c2=O)CC[C@H]1C(=O)c1ccc(OCc2ccc(F)cc2)cc1 (single isomer, unassigned) [Example 14, (−)-(1RS,2RS,5SR)-2-{4-[(4-Fluorobenzyl)oxy]benzoyl}-5-{[4-oxo-6-(trifluoromethyl)-1,2,3-benzotriazin-3(4H)-yl]methyl}cyclopentanecarboxylic acid] | 8.00
Cc1cccc(COc2ccc(C(=O)[C@@H]3CC[C@H](Cn4nnc5ccc(C(F)(F)F)cc5c4=O)[C@H]3C(=O)O)cc2)c1 (single isomer, unassigned) [Example 17, (−)-(1RS,2RS,5SR)-2-{4-[(3-Methylbenzyl)oxy]benzoyl}-5-{[4-oxo-6-(trifluoromethyl)-1,2,3-benzotriazin-3(4H)-yl]methyl}cyclopentanecarboxylic acid] | 7.32
O=C(O)[C@@H]1[C@@H](Cn2nnc3ccc(C(F)(F)F)cc3c2=O)CC[C@H]1C(=O)c1ccc(OCc2cccc(Cl)c2)cc1 (single isomer, unassigned) [Example 22, (−)-(1RS,2RS,5SR)-2-{4-[(3-Chlorobenzyl)oxy]benzoyl}-5-{[4-oxo-6-(trifluoromethyl)-1,2,3-benzotriazin-3(4H)-yl]methyl}cyclopentanecarboxylic acid] | 6.77
O=C(O)[C@@H]1[C@@H](Cn2nnc3ccc(C(F)(F)F)cc3c2=O)CC[C@H]1C(=O)c1ccc(OCc2ccc(Cl)cc2)cc1 (single isomer, unassigned) [Example 26, (−)-(1RS,2RS,5SR)-2-{4-[(4-Chlorobenzyl)oxy]benzoyl}-5-{[4-oxo-6-(trifluoromethyl)-1,2,3-benzotriazin-3(4H)-yl]methyl}cyclopentanecarboxylic acid] | 9.00
O=C(O)[C@@H]1[C@@H](Cn2nnc3ccc(C(F)(F)F)cc3c2=O)CC[C@H]1C(=O)c1ccc(OCc2cccc(N3CCOC3=O)c2)cc1 (single isomer, unassigned) [Example 34, (−)-(1RS,2RS,5SR)-2-(4-{[3-(2-Oxo-1,3-oxazolidin-3-yl)benzyl]oxy}benzoyl)-5-{[4-oxo-6-(trifluoromethyl)-1,2,3-benzotriazin-3(4H)-yl]methyl}cyclopentanecarboxylic acid] | 6.80
O=C(O)[C@@H]1[C@@H](Cn2nnc3ccc(C(F)(F)F)cc3c2=O)CC[C@H]1C(=O)c1ccc(OCCc2ccccc2)cc1 (single isomer, unassigned) [Example 37, (+)-(1RS,2SR,5RS)-2-{[4-Oxo-6-(trifluoromethyl)-1,2,3-benzotriazin-3(4H)-yl]methyl}-5-[4-(2-phenylethoxy)benzoyl]cyclopentanecarboxylic acid] | 10.10
O=C(O)[C@@H]1[C@@H](Cn2nnc3ccc(C(F)(F)F)cc3c2=O)CC[C@H]1C(=O)c1ccc(OCC2CCCCC2)cc1 (single isomer, unassigned) [Example 42, (−)-(1RS,2RS,5SR)-2-[4-(Cyclohexylmethoxy)benzoyl]-5-{[4-oxo-6-(trifluoromethyl)-1,2,3-benzotriazin-3(4H)-yl]methyl}cyclopentanecarboxylic acid] | 7.41
O=C(O)[C@@H]1[C@@H](Cn2nnc3ccc(C(F)(F)F)cc3c2=O)CC[C@H]1C(=O)c1ccc(OCC2CCCC2)cc1 (single isomer, unassigned) [Example 45, (−)-(1RS,2RS,5SR)-2-[4-(Cyclopentylmethoxy)benzoyl]-5-{[4-oxo-6-(trifluoromethyl)-1,2,3-benzotriazin-3(4H)-yl]methyl}cyclopentanecarboxylic acid] | 8.39
O=C(O)[C@@H]1[C@@H](Cn2nnc3ccc(C(F)(F)F)cc3c2=O)CC[C@H]1C(=O)c1ccc(OCCC2CCCC2)cc1 (single isomer, unassigned) [Example 54, (−)-(1RS,2RS,5SR)-2-[4-(2-Cyclopentylethoxy)benzoyl]-5-{[4-oxo-6-(trifluoromethyl)-1,2,3-benzotriazin-3(4H)-yl]methyl}cyclopentanecarboxylic acid] | 7.66
CCCCCCOc1ccc(C(=O)[C@@H]2CC[C@H](Cn3nnc4ccc(C(F)(F)F)cc4c3=O)[C@H]2C(=O)O)cc1 (single isomer, unassigned) [Example 59, (−)-(1RS,2RS,5SR)-2-[4-(Hexyloxy)benzoyl]-5-{[4-oxo-6-(trifluoromethyl)-1,2,3-benzotriazin-3(4H)-yl]methyl}cyclopentanecarboxylic acid] | 8.38
CC(C)CCOc1ccc(C(=O)[C@@H]2CC[C@H](Cn3nnc4ccc(C(F)(F)F)cc4c3=O)[C@H]2C(=O)O)cc1 (single isomer, unassigned) [Example 61, (+)-(1RS,2RS,5SR)-2-[4-(3-Methylbutoxy)benzoyl]-5-{[4-oxo-6-(trifluoromethyl)-1,2,3-benzotriazin-3(4H)-yl]methyl}cyclopentanecarboxylic acid] | 10.49

Now from value to molecule:

pIC50 | Structure (SMILES)
9.89 | Cc1ccc2nnn(C[C@@H]3CC[C@H](C(=O)c4ccc(OCCCc5ccccc5)cc4)[C@H]3C(=O)O)c(=O)c2c1 (racemic) [Example 115, (+/−)-(1RS,2SR,5RS)-2-[(6-Methyl-4-oxo-1,2,3-benzotriazin-3(4H)-yl)methyl]-5-[4-(3-phenylpropoxy)benzoyl]cyclopentanecarboxylic acid]
10.32 | Cc1ccc2nnn(C[C@@H]3CC[C@H](C(=O)c4ccc(OCC5CCCC5)cc4)[C@H]3C(=O)O)c(=O)c2c1 (racemic) [Example 119, (+/−)-(1RS,2RS,5SR)-2-[4-(Cyclopentylmethoxy)benzoyl]-5-[(6-methyl-4-oxo-1,2,3-benzotriazin-3(4H)-yl)methyl]cyclopentanecarboxylic acid]
8.34 | O=C(O)[C@@H]1[C@@H](Cn2nnc3ccc(C(F)(F)F)cc3c2=O)CC[C@H]1C(=O)c1ccc(OCc2cccc(C(F)(F)F)c2)cc1 (single isomer, unassigned) [Example 20, (−)-(1RS,2SR,5RS)-2-{[4-Oxo-6-(trifluoromethyl)-1,2,3-benzotriazin-3(4H)-yl]methyl}-5-(4-{[3-(trifluoromethyl)benzyl]oxy}benzoyl)cyclopentanecarboxylic acid]
6.46 | O=C(O)[C@@H]1[C@@H](Cn2nnc3ccc(C(F)(F)F)cc3c2=O)CC[C@H]1C(=O)c1ccc(OCCc2ccccc2)cc1 (single isomer, unassigned) [Example 38, (−)-(1RS,2SR,5RS)-2-{[4-Oxo-6-(trifluoromethyl)-1,2,3-benzotriazin-3(4H)-yl]methyl}-5-[4-(2-phenylethoxy)benzoyl]cyclopentanecarboxylic acid]
10.60 | O=C(O)[C@@H]1[C@@H](Cn2nnc3ccc(C(F)(F)F)cc3c2=O)CC[C@H]1C(=O)c1ccc(OCC2CCC2)cc1 (single isomer, unassigned) [Example 47, (+)-(1RS,2RS,5SR)-2-[4-(Cyclobutylmethoxy)benzoyl]-5-{[4-oxo-6-(trifluoromethyl)-1,2,3-benzotriazin-3(4H)-yl]methyl}cyclopentanecarboxylic acid]
6.54 | O=C(O)[C@@H]1[C@@H](Cn2nnc3ccc(C(F)(F)F)cc3c2=O)CC[C@H]1C(=O)c1ccc(OCC2CCC2)cc1 (single isomer, unassigned) [Example 48, (−)-(1RS,2RS,5SR)-2-[4-(Cyclobutylmethoxy)benzoyl]-5-{[4-oxo-6-(trifluoromethyl)-1,2,3-benzotriazin-3(4H)-yl]methyl}cyclopentanecarboxylic acid]
7.52 | O=C(O)[C@@H]1[C@@H](Cn2nnc3ccc(C(F)(F)F)cc3c2=O)CC[C@H]1C(=O)c1ccc(OCCC2CCCCC2)cc1 (single isomer, unassigned) [Example 51, (−)-(1RS,2RS,5SR)-2-[4-(2-Cyclohexylethoxy)benzoyl]-5-{[4-oxo-6-(trifluoromethyl)-1,2,3-benzotriazin-3(4H)-yl]methyl}cyclopentanecarboxylic acid]
